Literature values as cited in patent US7741337B2, “Azonafide derivatives, methods for their production and pharmaceutical compositions therefrom” (Unibioscreen S.A., priority 2005, dated 2010).

Key:
[1] = patients receiving five daily doses of the drug; cited from earlier work
[2] = test system: leukemia models; details: mice; cited from earlier work
[3] = test system: primary human solid tumours; details: in vitro; Ajani et al. Invest New Drugs (1988) 6:79-83; cited from earlier work
[4] = test system: human tumour xenografts with colon, lung and mammary cancers; details: mice with colon; cited from earlier work

CN(C)CCN1C(=O)c2cccc3cc(N)cc(c23)C1=O [amonafide]
myelotoxicity [1]: substantial myelotoxicity leading to some deaths | activity in leukemia models [2]: only moderate activity | activity in primary human solid tumours [3]: poor activity | activity in human tumour xenografts [4]: no activity
